{
  "source": "paper PMC3779320",
  "about": "“Bub3 reads phosphorylated MELT repeats to promote spindle assembly checkpoint signaling” (eLife, 2013)",
  "key": {"Bub1^289–359–R314A–Bub3": {"target": "T1, Bub1^289–359–R314A–Bub3 (Saccharomyces cerevisiae, UniProt P26449+P41695, R314A)", "T1 construct": "S. cerevisiae Bub1^289–359 and for full length Bub3; ITC experiment with the MELT2^P peptide and the Bub1^289–359–R314A–Bub3 complex; GST (N, cleaved yes); made in house; host or cells: E. coli BL21 DE3 plysS", "T1 sequence (P41695 289-359 R314A, one chain of several)": "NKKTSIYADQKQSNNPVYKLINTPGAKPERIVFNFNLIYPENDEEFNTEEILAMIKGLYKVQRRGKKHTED", "format": "binding", "settings": "ITC; Bub3-Bub1^R314A mutant compared to wild type Bub3–Bub1; MELT4^P: data not shown", "source_text": "Such function of Bub1 is probably exerted primarily through its structuring effects on the 4-stranded β-sheet ‘roof’ that dominates the peptide-binding region of Bub3 and which restrains the position of the positively charged residues in the ‘north’ area of the MELT^P-binding site (Figure 4E). Additionally, we observe that Arg314^Bub1, in the β1-β2 loop, contributes to the interaction with the phosphate group of P-Thr172^Spc105/Knl1 (the interaction, however, is only observed in one of the two complexes in the asymmetric unit, and in proximity of a crystal contact) and is therefore directly engaged in the interaction with the MELT2^P peptide. In ITC measurements, we observed a ∼fourfold reduction in the binding affinity of the Bub3-Bub1^R314A mutant for the MELT2^P peptide, in agreement with a role of Arg314^Bub1 is in the interaction of the Bub1-Bub3 complex with MELT2^P (Figure 4F). Similarly, Bub3–Bub1^R314A bound the MELT4^P with ∼threefold decreased affinity compared to wild type Bub3–Bub1 (data not shown).\nBinding isotherm was measured at 25°C by isothermal titration calorimetry on a MicroCal ITC200 device (GE Healthcare, Piscataway, NJ). All samples were extensively dialysed into fresh GF buffer (20 mM Tris pH7.5, 150 mM NaCl, 1 mM DTE). […]"}, "Bub3": {"target": "T2, Bub3 (Saccharomyces cerevisiae, UniProt P26449)", "T2 construct": "S. cerevisiae Bub1^289–359 and for full length Bub3; made in house", "T2 sequence (P26449 1-341)": "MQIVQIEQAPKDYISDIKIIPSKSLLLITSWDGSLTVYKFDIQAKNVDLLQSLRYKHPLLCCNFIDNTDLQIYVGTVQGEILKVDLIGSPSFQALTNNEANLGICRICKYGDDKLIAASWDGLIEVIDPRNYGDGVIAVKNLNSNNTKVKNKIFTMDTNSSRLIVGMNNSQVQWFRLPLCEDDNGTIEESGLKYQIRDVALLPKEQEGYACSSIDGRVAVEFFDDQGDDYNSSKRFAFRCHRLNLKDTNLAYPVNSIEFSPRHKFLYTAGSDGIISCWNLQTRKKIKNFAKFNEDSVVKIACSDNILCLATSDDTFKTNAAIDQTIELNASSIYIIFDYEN", "assay": "ITC binding to Bub3 in the absence of Bub1", "settings": "Bub3 without Bub1 compared to the Bub1–Bub3 complex", "experimental": "However, as already anticipated in the Introduction, several lines of evidence indicate that Bub1 contributes to this interaction (Discussion). To test this possibility formally, we measured the binding of purified Bub3 (Figure 1D) to the MELT2^P peptide in the absence of Bub1.\nBinding isotherm was measured at 25°C by isothermal titration calorimetry on a MicroCal ITC200 device (GE Healthcare, Piscataway, NJ). All samples were extensively dialysed into fresh GF buffer (20 mM Tris pH7.5, 150 mM NaCl, 1 mM DTE). In each titration, the Bub1^289–359–Bub3 in the cell (at a 30 µM concentration) was titrated with thirty-five 2-µl injections (at 90 s intervals) of the indicated synthetic MELT^P peptides (at a concentration of 400 µM). The injections were continued beyond saturation levels to allow for determination of heats of ligand dilution. Data were fitted by least-square procedures to a single-site binding model using ORIGIN 5.0 software package (MicroCal, Northampton, MA)."}},
  "note": "Square brackets hold non-standard residues; d marks the D form. Peptide text beside a SMILES is read from it. pT = C[C@@H](OP(=O)(O)O)[C@H](N)C(=O)O",
  "data": [
    {"molecule": "CC[C@H](C)[C@H](NC(=O)[C@H](CO)NC(=O)[C@H](CCCNC(=N)N)NC(=O)[C@@H]1CCCN1C(=O)[C@H](Cc1ccccc1)NC(=O)[C@@H](NC(=O)[C@H](CCC(=O)O)NC(=O)[C@@H](NC(=O)[C@H](CCSC)NC(=O)[C@H](CCC(=O)O)NC(=O)[C@H](CCSC)NC(=O)[C@H](CO)NC(=O)[C@@H](NC(=O)[C@@H]1CCCN1C(=O)[C@H](CC(=O)O)NC(C)=O)[C@@H](C)O)[C@@H](C)OP(=O)(O)O)C(C)C)C(=O)N[C@@H](CCCNC(=N)N)C(=O)N[C@@H](CCC(N)=O)C(=O)N[C@@H](CCCCN)C(=O)N[C@@H](CC(N)=O)C(N)=O", "note": "[MELT2^P] (Ac-DPTSMEM[pT]EVFPRSIRQKN-NH2; N-terminus and C-terminus assumed)", "values": [
      {"measurement": "fold reduction in binding affinity", "setting": "Bub1^289–359–R314A–Bub3", "result": "fourfold"},
      {"measurement": "fold reduction in binding affinity", "setting": "Bub3", "result": 10, "unit": "fold"}
    ]}
  ]
}
